Source: US20230131966A1, “FUNGICIDAL AMIDES” (FMC Corporation, priority 2020, published 2023)

Key:
Type in all cases: in vivo
[1] = system: Erysiphe graminis f. sp. tritici; assay: Test G: wheat powdery mildew control on wheat seedlings; conditions: for Test G disease control rating (100 = 100% disease control, 0 = no disease control): rate 250 ppm, relative to the controls; for pest or weed control at 250 ppm / Test G disease control rating: 250 ppm
[2] = system: Botrytis cinerea; assay: Test E: tomato Botrytis control on tomato seedlings; conditions: for Test E disease control rating (100 = 100% disease control, 0 = no disease control): rate 250 ppm, relative to the controls; for pest or weed control at 250 ppm / Test E disease control rating: 250 ppm
[3] = system: Puccinia recondita f. sp. tritici; assay: Test B: wheat leaf rust control on wheat seedlings; conditions: for Test B disease control rating (100 = 100% disease control, 0 = no disease control): rate 250 ppm, relative to the controls; for pest or weed control at 250 ppm / Test B disease control rating: 250 ppm
[4] = system: Phakopsora pachyrhizi; assay: Test A: Asian soybean rust control on soybean seedlings; conditions: for Test A disease control rating (100 = 100% disease control, 0 = no disease control): rate 250 ppm, relative to the controls; for pest or weed control at 250 ppm / Test A disease control rating: 250 ppm
[5] = system: Phytophthora infestans; assay: whole plant or invertebrate; conditions: tomato seedlings; for Test F disease control rating (100 = 100% disease control, 0 = no disease control): rate 250 ppm, relative to the controls; for pest or weed control at 250 ppm: read-out: Test F disease control rating, 250 ppm; for Test F disease control rating: 250 ppm
[6] = system: Zymoseptoria tritici; assay: Test C: wheat leaf blotch control on wheat seedlings; conditions: for Test C disease control rating (100 = 100% disease control, 0 = no disease control): rate 250 ppm, relative to the controls; for pest or weed control at 250 ppm / Test C disease control rating: 250 ppm
[7] = system: Plasmopara viticola; assay: Test D: grape downy mildew control on grape seedlings; conditions: for Test D disease control rating (100 = 100% disease control, 0 = no disease control): rate 250 ppm, relative to the controls; for pest or weed control at 250 ppm / Test D disease control rating: 250 ppm
[8] = Blumeria graminis, 100 = 100% disease control, 0 = no control, read-out: Test G disease control rating
[9] = Botrytis cinerea, 100 = 100% disease control, 0 = no control, read-out: Test E disease control rating
[10] = Puccinia recondita, wheat seedlings, 100 = 100% disease control, 0 = no control, read-out: Test B disease control rating
[11] = Phakopsora pachyrhizi, soybean seedlings, 100 = 100% disease control, 0 = no control, read-out: Test A disease control rating
[12] = Phytophthora infestans, in Solanum lycopersicum, 100 = 100% disease control, 0 = no control
[13] = Zymoseptoria tritici, wheat seedlings, 100 = 100% disease control, 0 = no control, read-out: Test C disease control rating
[14] = Plasmopara viticola, 100 = 100% disease control, 0 = no control, read-out: Test D disease control rating
[15] = 100 = 100% disease control, 0 = no control
[16] = wheat seedlings, 100 = 100% disease control, 0 = no control
[17] = soybean seedlings, 100 = 100% disease control, 0 = no control

Structure (SMILES) | pest or weed control at 250 ppm [1, 8] [%] | pest or weed control at 250 ppm [2, 9] [%] | pest or weed control at 250 ppm [3, 10] [%] | pest or weed control at 250 ppm [4, 11] [%] | pest or weed control at 250 ppm [5, 12] [%] | pest or weed control at 250 ppm [6, 13] [%] | pest or weed control at 250 ppm [7, 14] [%] | other results
COc1ccnc(C(=O)NC(C)C(=O)OC(C)C2COc3ccccc32)c1OC(C)=O (mixture of isomers) [Compound 191] | – | – | – | – | – | – | – | Test G disease control rating (100 = 100% disease control, 0 = no disease control) [1]: 21%; Test E disease control rating (100 = 100% disease control, 0 = no disease control) [2]: 0%; Test B disease control rating (100 = 100% disease control, 0 = no disease control) [3]: 96%; Test A disease control rating (100 = 100% disease control, 0 = no disease control) [4]: 100%; Test F disease control rating (100 = 100% disease control, 0 = no disease control) [5]: 0%; Test C disease control rating (100 = 100% disease control, 0 = no disease control) [6]: 89%; Test D disease control rating (100 = 100% disease control, 0 = no disease control) [7]: 26%
COc1ccnc(C(=O)N(C)C(C)C(=O)OC(C)c2ccc(C3CCCCC3)cc2)c1O (mixture of isomers) [Compound 193] | – | – | – | – | – | – | – | Test G disease control rating (100 = 100% disease control, 0 = no disease control) [1]: 0%; Test E disease control rating (100 = 100% disease control, 0 = no disease control) [2]: 0%; Test B disease control rating (100 = 100% disease control, 0 = no disease control) [3]: 74%; Test A disease control rating (100 = 100% disease control, 0 = no disease control) [4]: 87%; Test F disease control rating (100 = 100% disease control, 0 = no disease control) [5]: 0%; Test C disease control rating (100 = 100% disease control, 0 = no disease control) [6]: 3%; Test D disease control rating (100 = 100% disease control, 0 = no disease control) [7]: 74%
CC(NC(=O)c1cccc(N)c1O)C(=O)OC(C)c1ccccc1Cc1ccccc1 (racemic) [Compound 9] | 0 | 0 | 91 | 95 | 76 | 53 | 97 | –
COc1ccnc(C(=O)NC(C)C(=O)OC(C)c2ccncc2)c1O (racemic) [Compound 14] | 0 | 0 | 0 | 0 | 0 | 12 | 48 | –
COc1ccnc(C(=O)N[C@@H](C)C(=O)OC(C)C2CCCCC2)c1OC(C)=O (mixture of isomers) [Compound 29, N-[[3-(acetyloxy)-4-methoxy-2-pyridinyl]carbonyl]-L-alanine 1-cyclohexylethyl ester] | 0 | 0 | 99 | 100 | 33 | 95 | 17 | –
COc1ccnc(C(=O)N[C@@H](C)C(=O)OC(C)C2CCCCC2)c1O (mixture of isomers) [Compound 30, N-[(3-hydroxy-4-methoxy-2-pyridinyl)carbonyl]-L-alanine 1-cyclohexylethyl ester] | 0 | 0 | 100 | 100 | 0 | 97 | 1 | –
COc1ccnc(C(=O)N[C@@H](C)C(=O)OC(C)c2ccc(C3CCCCC3)cc2)c1OC(C)=O (mixture of isomers) [Compound 31, N-[[3-(acetyloxy)-4-methoxy-2-pyridinyl]carbonyl]-L-alanine 1-(4-cyclohexylphenyl)ethyl ester] | 73 | 0 | 100 | 100 | 0 | 87 | 1 | –
COc1ccnc(C(=O)N[C@@H](C)C(=O)OC(C)c2ccc(C3CCCCC3)cc2)c1O (mixture of isomers) [Compound 32, N-[(3-hydroxy-4-methoxy-2-pyridinyl)carbonyl]-L-alanine 1-(4-cyclohexylphenyl)ethyl ester] | 0 | 0 | 99 | 100 | 0 | 86 | 18 | –
COc1ccnc(C(=O)N[C@@H](C)C(=O)OC(C(C)C)C2CCCCC2)c1OC(C)=O (mixture of isomers) [Compound 62, N-[[3-(acetyloxy)-4-methoxy-2-pyridinyl]carbonyl]-L-alanine 1-cyclohexyl-2-methylpropyl ester] | – | – | – | – | – | – | – | pest or weed control at 50 ppm ([1]; Blumeria graminis, 50 ppm, 100 = 100% disease control, 0 = no control, read-out: Test G disease control rating): 0%; pest or weed control at 50 ppm ([2]; Botrytis cinerea, 50 ppm, 100 = 100% disease control, 0 = no control, read-out: Test E disease control rating): 0%; pest or weed control at 50 ppm ([3]; Puccinia recondita, 50 ppm, wheat seedlings, 100 = 100% disease control, 0 = no control, read-out: Test B disease control rating): 93%; pest or weed control at 50 ppm ([4]; Phakopsora pachyrhizi, 50 ppm, soybean seedlings, 100 = 100% disease control, 0 = no control, read-out: Test A disease control rating): 100%; pest or weed control at 50 ppm ([5]; Phytophthora infestans, in Solanum lycopersicum, read-out: Test F disease control rating, 50 ppm, 100 = 100% disease control, 0 = no control): 0%; pest or weed control at 50 ppm ([6]; Zymoseptoria tritici, 50 ppm, wheat seedlings, 100 = 100% disease control, 0 = no control, read-out: Test C disease control rating): 14%; pest or weed control at 50 ppm ([7]; Plasmopara viticola, 50 ppm, 100 = 100% disease control, 0 = no control, read-out: Test D disease control rating): 74%
COc1ccnc(C(=O)N[C@@H](C)C(=O)OC(C)c2ccc(C3CC3)cc2)c1O (mixture of isomers) [Compound 66, N-[(3-hydroxy-4-methoxy-2-pyridinyl)carbonyl]-L-alanine 1-(4-cyclopropylphenyl)ethyl ester] | 21 | 0 | 100 | 100 | 0 | 73 | 93 | –
COc1ccnc(C(=O)N[C@H](C(=O)OC(C)c2ccc(C3CCCCC3)cc2)C(C)C)c1OC(C)=O (mixture of isomers) [Compound 79, N-[[3-(acetyloxy)-4-methoxy-2-pyridinyl]carbonyl]-L-valine 1-(4-cyclohexylphenyl)ethyl ester] | 0 | 0 | 100 | 100 | 0 | 100 | 11 | –
CCC(OC(=O)[C@H](C)NC(=O)c1nccc(OC)c1OC(C)=O)C1CCCCC1 (mixture of isomers) [Compound 83, N-[[3-(acetyloxy)-4-methoxy-2-pyridinyl]carbonyl]-L-alanine 1-cyclohexylpropyl ester] | 0 | 0 | 100 | 100 | 0 | 97 | 27 | –
CCC(OC(=O)[C@H](C)NC(=O)c1nccc(OC)c1O)C1CCCCC1 (mixture of isomers) [Compound 84, N-[(3-hydroxy-4-methoxy-2-pyridinyl)carbonyl]-L-alanine 1-cyclohexylpropyl ester] | 0 | 0 | 100 | 100 | 0 | 57 | 21 | –
CCC(OC(=O)[C@H](C)NC(=O)c1nccc(OC)c1OC(C)=O)c1ccc(C2CCCCC2)cc1 (mixture of isomers) [Compound 100, N-[[3-(acetyloxy)-4-methoxy-2-pyridinyl]carbonyl]-L-alanine 1-(4-cyclohexylphenyl)propyl ester] | 0 | 0 | 99 | 100 | 0 | 88 | 32 | –
COc1ccnc(C(=O)N[C@@H](C)C(=O)OC(C)C2CCC(c3ccccc3)CC2)c1OC(C)=O (mixture of isomers) [Compound 104, N-[[3-(acetyloxy)-4-methoxy-2-pyridinyl]carbonyl]-L-alanine 1-(4-phenylcyclohexyl)ethyl ester] | 0 | 0 | 100 | 100 | 0 | 93 | 65 | –
COc1ccnc(C(=O)N[C@@H](C)C(=O)OC(C)c2ccccc2-c2ccccc2)c1O (single isomer, unassigned) [Compound 1] | – | – | – | – | – | – | – | Test G disease control rating [1, 15]: 0%; Test E disease control rating [2, 15]: 0%; Test B disease control rating [3, 16]: 89%; Test A disease control rating [4, 17]: 100%; Test F disease control rating [5, 15]: 0%; Test C disease control rating [6, 16]: 81%; Test D disease control rating [7, 15]: 36%
COc1ccnc(C(=O)N[C@@H](C)C(=O)OC(C)c2ccccc2-c2ccccc2)c1O (single isomer, unassigned) [Compound 2] | – | – | – | – | – | – | – | Test G disease control rating [1, 15]: 0%; Test E disease control rating [2, 15]: 0%; Test B disease control rating [3, 16]: 55%; Test A disease control rating [4, 17]: 99%; Test F disease control rating [5, 15]: 0%; Test C disease control rating [6, 16]: 73%; Test D disease control rating [7, 15]: 63%
